Measurements as given in patent US20110091387A1, “METHODS AND COMPOSITIONS FOR REDUCING SKIN DAMAGE” (THE GENERAL HOSPITAL CORPORATION, priority 2007, published 2011).

Key:
RhoE = assay: Western blot of RhoE and p53 expression after kaempferol treatment; type: cell-based; details: FIG. 3; relative to p53 expression
Source text: FIG. 3 is a Western blot depicting RhoE and p53 expression following treatment with the indicated amounts of kaempferol.

[1] = test system: HaCaT human keratinocyte cells; assay: UVB-induced cell death in HaCaT keratinocytes; type: cell-based; details: 1 and 2.5 μM; UVB 30 mJ/cm^2; 24 hours later; FIG. 4
Method: To determine whether RhoE inducing compounds have the protective effect on the UVB damage-mediated cell death, kaempferol-treated (1 and 2.5 μM) HaCaT human keratinocyte cells were exposed to UVB (30 mJ/cm^2), and 24 hours later cell death rate was examined (FIG. 4).

RhoE promoter = RhoE promoter luc2 luciferase reporter screen for inducers of RhoE expression; type: cell-based; details: luminescence at 24 hours; for Composite Z value (induction of RhoE expression): Table 1, two replicates per compound
Method: To isolate compounds that can activate RhoE pathway in keratinocytes and protect against UVB exposure, a robust and sensitive chemical genetics approach was developed for the identification of small molecules that induce RhoE expression. Briefly, a reporter construct was created that included the RhoE promoter operatively linked to the luc2 luciferase reporter gene (FIG. 1A). Stable cell lines were produced that expressed the reporter construct, and the cells were plated in 384 well plates at ˜10,000 cells per well. The library test compounds were added to the plated cells at two replicates per compound, and the cells were incubated with the compounds for 24 hours. Luminescence was measured at 24 hours using a plate reader. The data were analyzed using Spotfire.

UVB damaged mouse skin = UVB damaged mouse skin treated topically (TUNEL, CPD, phospho-H2AX, RhoE staining); type: in vivo
Method: Next, it was investigated whether kaempferol has any protective effect and or DNA repair potential on UVB damaged mouse skin. The dorsal hair of 8-week-old, C57BL/6 mice was trimmed and fine hair was removed by application of a hair-remover, 2 days before UVB exposure. Restrained mice were UVB irradiated at 120 mJ/cm^2 and treated with 0.5 mM kaempferol in 50 μl DMSO or DMSO control. The skin was removed from euthanized mice at various times after UVB exposure, fixed immediately in 4% neutral buffered paraformaldehyde, embedded in OCT, and sectioned at 8-μm thickness. Apoptotic cells were detected in skin sections harvested 16 hours after exposure to UVB, by the terminal nucleotidyl transferase-mediated nick end labeling (TUNEL) assay (Roche Applied Science, Germany) according to the manufacturer's instructions. […] The levels of an activated form of H2AX (Ser139) that is known to be activated and bound at the sites of DNA damage in response to UVB damage were also measured by staining with Anti-Phospho-H2AX (Ser139) antibodies (Upstate Cell Signaling Solutions, New York).

| Structure (SMILES) | Composite Z value (induction of RhoE expression) (RhoE promoter) | also measured |
| --- | --- | --- |
| O=c1c(O)c(-c2ccc(O)cc2)oc2cc(O)cc(O)c12 [Kaempferol] | 6.2959 | RhoE expression (Western blot) (RhoE): able to activate RhoE expression in a p53-independent manner; UVB-induced cell death rate [1]: suppression of UVB-induced cell death; Composite Z (RhoE promoter; Table 2, two replicates): 6.2959; Apoptosis in epidermis (TUNEL) (UVB damaged mouse skin; 0.5 mM in 50 μl DMSO, UVB 120 mJ/cm^2, 16 hours after exposure, vs DMSO, FIG. 5): inhibited apoptosis induced by UVB damage in epidermis; Cyclobutane pyrimidine dimer (CPD) formation in epidermis (TDM-2 staining) (UVB damaged mouse skin; 0.5 mM, UVB 120 mJ/cm^2, FIGS. 6A-6C): suppressed pyrimidine dimmer formation; Levels of activated form of H2AX (Ser139) in skin (UVB damaged mouse skin; 0.5 mM, UVB 120 mJ/cm^2, FIGS. 7A-7C): significantly decreased; RhoE expression in suprabasal area of epidermis (UVB damaged mouse skin; 0.5 mM, UVB exposure, FIG. 8): enhanced |
| Oc1ccc(OCc2ccccc2)cc1 [Monobenzone, reference compound] | 2.1629 |  |
| C=CC(C1=CC(=O)C(OC)=CC1=O)c1ccc(O)cc1 (centres unmarked) [dalbergione, 4-methoxy-4′-hydroxy-] | 2.3862 |  |
| Cc1ccc2cc3c(ccc4ccccc43)c3c2c1CC3 [3-methylcholanthrene] | 2.4062 |  |
| CC1(C)C=Cc2cc3ccc(=O)oc3cc2O1 [Xanthyletin] | 2.6831 |  |
| COc1cc(OC)c2c(=O)cc(-c3ccccc3)oc2c1 [chrysin dimethyl ether] | 3.477 |  |
| CNc1ccccc1C(=O)N1CCc2c([nH]c3ccccc23)C1=O [Rhetsinine] | 3.357 |  |
| CC1=C(/C=C/C(C)=C/C=C/C(C)=C/C(=O)O)C(C)(C)CCC1 [Tretinoin, reference compound] | 2.2603 |  |
| CCOC(=O)C1(O)Oc2cc(OC)cc(OC)c2C(=O)C1c1ccccc1 (centres unmarked) [2-ethoxycarbonyl-2-hydroxy-5,7-dimethoxyisoflavanone] | 2.164 |  |
| COc1cc(OC)c2c(=O)c(-c3ccccc3)coc2c1 [5,7-dimethoxyisoflavone] | 3.2977 |  |
